#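 1) Cells in 96-well plates. 2) Compound, 48 h, 5 concentrations. 3) Linear interpolation between surrounding doses. 4) Unreached endpoint = highest concentration. GI50 is the concentration that inhibits growth by half. TGI marks complete inhibition of growth.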
# Legend:
# Assay in all cases: DTP human tumour cell line panel, 48 h
# RPMI-8226 leukemia = test system: RPMI-8226 leukemia
# NCI-H23 lung = test system: NCI-H23 lung
# LOX IMVI melanoma = test system: LOX IMVI melanoma
# OVCAR-4 ovarian = test system: OVCAR-4 ovarian
# RXF 393 renal = test system: RXF 393 renal
# CCRF-CEM leukemia = test system: CCRF-CEM leukemia
# COLO 205 colon = test system: COLO 205 colon
# NCI-H226 lung = test system: NCI-H226 lung
# UACC-257 melanoma = test system: UACC-257 melanoma
# HT29 colon = test system: HT29 colon
# SF-295 CNS = test system: SF-295 CNS
# KM12 colon = test system: KM12 colon
# HL-60(TB) leukemia = test system: HL-60(TB) leukemia
# IGROV1 ovarian = test system: IGROV1 ovarian
# SK-MEL-5 melanoma = test system: SK-MEL-5 melanoma
# MDA-MB-231 breast = test system: MDA-MB-231 breast
# NCI-H460 lung = test system: NCI-H460 lung
# CAKI-1 renal = test system: CAKI-1 renal
# SW-620 colon = test system: SW-620 colon
# BT-549 breast = test system: BT-549 breast
# HCC-2998 colon = test system: HCC-2998 colon
# HCT-15 colon = test system: HCT-15 colon
# OVCAR-8 ovarian = test system: OVCAR-8 ovarian
# MOLT-4 leukemia = test system: MOLT-4 leukemia
# UO-31 renal = test system: UO-31 renal
# MCF7 breast = test system: MCF7 breast
# K-562 leukemia = test system: K-562 leukemia
# SN12C renal = test system: SN12C renal
# ACHN renal = test system: ACHN renal
# HOP-62 NSCLC = test system: HOP-62 NSCLC
# UACC-62 melanoma = test system: UACC-62 melanoma
# HOP-92 NSCLC = test system: HOP-92 NSCLC
# U251 CNS = test system: U251 CNS
# T-47D breast = test system: T-47D breast
# SK-OV-3 ovarian = test system: SK-OV-3 ovarian
# SR leukemia = test system: SR leukemia
# 786-0 renal = test system: 786-0 renal
# PC-3 prostate = test system: PC-3 prostate
# SK-MEL-2 melanoma = test system: SK-MEL-2 melanoma
# A498 renal = test system: A498 renal
# SK-MEL-28 melanoma = test system: SK-MEL-28 melanoma
# MDA-MB-435 = test system: MDA-MB-435
# EKVX NSCLC = test system: EKVX NSCLC
# A549 NSCLC = test system: A549 NSCLC
# HCT-116 colon = test system: HCT-116 colon
# SF-539 CNS = test system: SF-539 CNS
# NCI-H522 lung = test system: NCI-H522 lung
# HS 578T breast = test system: HS 578T breast
# SNB-19 CNS = test system: SNB-19 CNS
# M14 melanoma = test system: M14 melanoma
# SF-268 CNS = test system: SF-268 CNS
# NCI/ADR-RES ovarian = test system: NCI/ADR-RES ovarian
# SNB-75 CNS = test system: SNB-75 CNS
# DU-145 prostate = test system: DU-145 prostate
# OVCAR-3 ovarian = test system: OVCAR-3 ovarian
# TK-10 renal = test system: TK-10 renal
# OVCAR-5 ovarian = test system: OVCAR-5 ovarian
smiles,measurement,setting,value
Cc1ccc(-c2cn3ccnc3c(-c3ccc(Cl)cc3)n2)cc1,GI50,RPMI-8226 leukemia,0.207 µM
same,TGI,RPMI-8226 leukemia,> 39.5 µM
same,GI50,NCI-H23 lung,0.433 µM
same,TGI,NCI-H23 lung,27.6 µM
same,GI50,LOX IMVI melanoma,0.384 µM
same,TGI,LOX IMVI melanoma,12.4 µM
same,GI50,OVCAR-4 ovarian,14.7 µM
same,TGI,OVCAR-4 ovarian,> 100 µM
same,GI50,RXF 393 renal,2.16 µM
same,TGI,RXF 393 renal,> 100 µM
same,GI50,CCRF-CEM leukemia,0.122 µM
same,TGI,CCRF-CEM leukemia,> 100 µM
same,GI50,COLO 205 colon,0.2 µM
same,TGI,COLO 205 colon,> 29.3 µM
same,GI50,NCI-H226 lung,10.3 µM
same,TGI,NCI-H226 lung,> 100 µM
same,TGI,UACC-257 melanoma,> 100 µM
same,GI50,HT29 colon,0.31 µM
same,TGI,HT29 colon,37.4 µM
same,GI50,SF-295 CNS,0.0268 µM
same,TGI,SF-295 CNS,2.33 µM
same,GI50,KM12 colon,0.15 µM
same,TGI,KM12 colon,16.6 µM
same,GI50,HL-60(TB) leukemia,0.0856 µM
same,TGI,HL-60(TB) leukemia,> 100 µM
same,GI50,IGROV1 ovarian,1.55 µM
same,TGI,IGROV1 ovarian,> 83 µM
same,GI50,SK-MEL-5 melanoma,0.0627 µM
same,TGI,SK-MEL-5 melanoma,11.4 µM
same,GI50,MDA-MB-231 breast,0.506 µM
same,TGI,MDA-MB-231 breast,50.1 µM
same,GI50,NCI-H460 lung,0.0916 µM
same,TGI,NCI-H460 lung,13.1 µM
same,GI50,CAKI-1 renal,0.0361 µM
same,TGI,CAKI-1 renal,2.84 µM
same,GI50,SW-620 colon,< 0.0217 µM
same,TGI,SW-620 colon,> 61.2 µM
same,GI50,BT-549 breast,2.3 µM
same,TGI,BT-549 breast,65.3 µM
same,GI50,HCC-2998 colon,2.13 µM
same,TGI,HCC-2998 colon,11.4 µM
same,GI50,HCT-15 colon,1.23 µM
same,TGI,HCT-15 colon,> 35.6 µM
same,GI50,OVCAR-8 ovarian,1.43 µM
same,TGI,OVCAR-8 ovarian,34.2 µM
same,GI50,MOLT-4 leukemia,0.0815 µM
same,TGI,MOLT-4 leukemia,> 100 µM
same,TGI,UO-31 renal,> 100 µM
same,GI50,MCF7 breast,0.28 µM
same,TGI,MCF7 breast,19.2 µM
same,GI50,K-562 leukemia,0.0352 µM
same,TGI,K-562 leukemia,> 100 µM
same,GI50,SN12C renal,0.532 µM
same,TGI,SN12C renal,62.5 µM
same,TGI,ACHN renal,22.3 µM
same,GI50,HOP-62 NSCLC,3.69 µM
same,TGI,HOP-62 NSCLC,> 68.6 µM
same,GI50,UACC-62 melanoma,0.137 µM
same,TGI,UACC-62 melanoma,35.9 µM
same,GI50,HOP-92 NSCLC,12.5 µM
same,TGI,HOP-92 NSCLC,> 93.2 µM
same,GI50,U251 CNS,0.786 µM
same,TGI,U251 CNS,18.1 µM
same,GI50,T-47D breast,8.12 µM
same,TGI,T-47D breast,> 58.5 µM
same,GI50,SK-OV-3 ovarian,0.714 µM
same,TGI,SK-OV-3 ovarian,> 94 µM
same,GI50,SR leukemia,0.0548 µM
same,GI50,786-0 renal,0.966 µM
same,TGI,786-0 renal,> 59.8 µM
same,GI50,PC-3 prostate,0.356 µM
same,TGI,PC-3 prostate,> 100 µM
same,GI50,SK-MEL-2 melanoma,9.27 µM
same,TGI,SK-MEL-2 melanoma,> 100 µM
same,GI50,A498 renal,0.389 µM
same,TGI,A498 renal,8.11 µM
same,GI50,SK-MEL-28 melanoma,0.518 µM
same,TGI,SK-MEL-28 melanoma,44 µM
same,GI50,MDA-MB-435,< 0.0126 µM
same,TGI,MDA-MB-435,0.185 µM
same,GI50,EKVX NSCLC,0.543 µM
same,TGI,EKVX NSCLC,> 100 µM
same,GI50,A549 NSCLC,1.33 µM
same,TGI,A549 NSCLC,> 49.8 µM
same,GI50,HCT-116 colon,0.292 µM
same,TGI,HCT-116 colon,> 33.8 µM
same,GI50,SF-539 CNS,0.0422 µM
same,TGI,SF-539 CNS,1.35 µM
same,GI50,NCI-H522 lung,1.98 µM
same,TGI,NCI-H522 lung,> 8.22 µM
same,GI50,HS 578T breast,0.115 µM
same,TGI,HS 578T breast,9.39 µM
same,GI50,SNB-19 CNS,1.39 µM
same,TGI,SNB-19 CNS,> 65.4 µM
same,GI50,M14 melanoma,0.416 µM
same,TGI,M14 melanoma,> 36.3 µM
same,GI50,SF-268 CNS,0.0885 µM
same,TGI,SF-268 CNS,11.7 µM
same,GI50,NCI/ADR-RES ovarian,0.102 µM
same,TGI,NCI/ADR-RES ovarian,> 30.6 µM
same,GI50,SNB-75 CNS,0.465 µM
same,TGI,SNB-75 CNS,24.5 µM
same,GI50,DU-145 prostate,0.214 µM
same,TGI,DU-145 prostate,52.9 µM
same,GI50,OVCAR-3 ovarian,0.0412 µM
same,GI50,TK-10 renal,0.419 µM
same,TGI,TK-10 renal,24.8 µM
same,GI50,OVCAR-5 ovarian,14.8 µM
same,TGI,OVCAR-5 ovarian,> 100 µM

# Reference: PubChem BioAssay (NCI)
